The target in one test is hERG potassium channel (Homo sapiens, UniProt Q12809). In words: Whole-cell patch-clamp (QPatch) of hERG current in HEK293 cells stably expressing hERG. In kind it is cell-based. On the procedure: In this study, a whole-cell patch-clamp technique was used to study the inhibitory effect of compounds on hERG potassium channels and to evaluate the risk of ventricular repolarization toxicity.
The HEK293 cell line stably expressing the hERG potassium channel cells was purchased from Creacell, Inc. (Cat. No. A-0320).
The HEK293 cell line that can stably express the hERG potassium channel, was cultured in DMEM medium containing 10% fetal bovine serum and 0.8 mg/mL G418 at 37° C. and 5% carbon dioxide.
Before the test, the cells were separated with TrypLET Express, centrifuged after adding medium to terminate digestion, resuspended the cell count, adjusted the cell density to 2-3×10^6 cells/mL, and then lightly mixed the cells on a room temperature equilibration shaker for 15-20 min.
Electrophysiological assays were performed using a fully automated patch-clamp QPatch 48 X (Sophion) device. The prepared cells were placed on a centrifuge on the Qpatch bench, the cells were washed using multiple centrifugation/suspension methods, and the cell culture medium was replaced with extracellular fluid. Remove an MTP-96 plate and place it in the location of the MTP source. Remove the QPlate chip and subsequently place the QPlate at the Qplate source location. The robotic arm scans the MTP-96 board and the QPlate chip barcode and grabs it to the measuring station. Draw the intracellular and external fluid from the liquid pool and add them to the intracellular fluid pool, cell and test cell pool of the QPlate chip, respectively. At the measuring station, all measuring sites on the QPlate undergo initial quality control. The quality control process includes aspirating the cell suspension from the cell vessel of the centrifuge and positioning the cells to the chip wells via a pressure controller to establish a high-resistance seal and create a whole-cell recording pattern.
The voltage stimulation protocol for whole-cell patch-clamp recording of whole-cell hERG potassium currents is as follows: the cell membrane voltage clamps at −80 mV when a whole-cell closure is formed. The clamping voltage is depolarized from −80 mV to −50 mV for 0.5 s (as a leakage current detection), then steps to 30 mV for 2.5 s, and then quickly recovers to −50 mV for 4 s to excite the tail current of the hERG channel. The data were collected repeatedly every 10 s to observe the effect of the drug on the hERG tail current. −50 mV stimulation at 0.5 s was used as the leakage current detection. The test data is collected by Qpatch and stored in the connected service station.
First, the current after the effect of each drug concentration and the blank control current are normalized 0, and then the inhibition rate corresponding to each drug concentration is calculated.
Calculate the mean and standard error for each concentration and calculate the semi-inhibitory concentration for each compound using the following Formula:
Y=Bottom+(Top−Bottom)/(1+10^((LogIC50−X)*HillSlope)) The above Formula was used to fit the dose-dependent effect nonlinearly, where C represents the test substance concentration, IC50 is the semi-inhibitory concentration, and h represents the Hill coefficient. Curve fitting and IC50 calculations were performed using Graphpad software.

The target of another test is T1, NLRP3 (Homo sapiens, UniProt Q96P20).
T1 construct: endogenous in cells; host or cells: THP-1 cells (IFN-γ differentiated, LPS primed, ATP stimulated)
T1 sequence (Q96P20 whole entry): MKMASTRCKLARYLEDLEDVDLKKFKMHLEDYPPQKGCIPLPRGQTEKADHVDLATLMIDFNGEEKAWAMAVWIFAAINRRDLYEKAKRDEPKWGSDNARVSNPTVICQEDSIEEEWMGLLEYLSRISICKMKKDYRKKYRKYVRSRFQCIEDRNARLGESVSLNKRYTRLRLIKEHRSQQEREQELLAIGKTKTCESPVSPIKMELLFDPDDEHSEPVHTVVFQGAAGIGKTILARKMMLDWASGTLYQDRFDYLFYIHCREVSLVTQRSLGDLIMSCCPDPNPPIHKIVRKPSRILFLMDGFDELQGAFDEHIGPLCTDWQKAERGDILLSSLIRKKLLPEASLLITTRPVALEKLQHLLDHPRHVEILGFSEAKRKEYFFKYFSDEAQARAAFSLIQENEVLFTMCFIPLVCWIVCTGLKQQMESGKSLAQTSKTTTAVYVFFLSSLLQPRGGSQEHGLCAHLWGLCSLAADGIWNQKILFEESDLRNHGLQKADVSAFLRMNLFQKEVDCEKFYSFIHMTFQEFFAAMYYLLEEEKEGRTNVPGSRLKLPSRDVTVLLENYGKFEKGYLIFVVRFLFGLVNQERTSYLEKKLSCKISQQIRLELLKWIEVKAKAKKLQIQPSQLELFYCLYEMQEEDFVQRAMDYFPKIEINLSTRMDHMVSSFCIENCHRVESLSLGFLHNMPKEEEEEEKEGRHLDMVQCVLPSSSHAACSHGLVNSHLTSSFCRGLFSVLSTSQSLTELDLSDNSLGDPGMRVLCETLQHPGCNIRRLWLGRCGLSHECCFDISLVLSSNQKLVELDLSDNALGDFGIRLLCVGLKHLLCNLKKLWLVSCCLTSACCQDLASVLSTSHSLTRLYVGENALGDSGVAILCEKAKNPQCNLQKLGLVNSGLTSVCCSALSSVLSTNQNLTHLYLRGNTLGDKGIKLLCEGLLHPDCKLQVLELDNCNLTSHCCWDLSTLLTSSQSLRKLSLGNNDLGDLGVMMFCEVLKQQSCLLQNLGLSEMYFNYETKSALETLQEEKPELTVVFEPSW
The test is described as follows: IL-1β (interleukin-1β) secretion in IFN-γ-differentiated, LPS/ATP-stimulated THP-1 cells (half inhibition rate of NLRP3). In kind it is cell-based. Particulars: IFN-γ 25 ng/mL, LPS 50 ng/mL, ATP 5 mM. The procedure:
Remove THP-1 cells from liquid nitrogen and place in a 37° C. water bath until ice melt. Add the cells to 5 mL of warm cell culture medium and centrifuge at 1,000 rpm for 5 min. Discard the supernatant and resuspend and culture in a new cell culture medium.
THP-1 cells are cultured in the culture medium and passaged every 2-3 days.
2.1.1 Add 100 μL of cell suspension per well to the cell plate and incubate the cell plate in a 37° C., 5% CO2 incubator for 24 hours.
2.2.1 Discard the supernatant of IFN-γ differentiation after differentiation treatment. Add 100 μL of serum-free medium containing LPS (final concentration of 50 ng/mL) to the cell plate. The cell plates were incubated in a 37° C., 5% CO2 incubator for 4 h.
Place the cell plate in an incubator at 37° C. and 5% CO2 for 1 hour.
2.2.3 Add 20 μL of 6×ATP per well according to the plate map (final concentration 5 mM) and incubate the cell plate in a 37° C., 5% CO2 incubator for 1 h. Collect the supernatant (60 μL) and store at −20° C.
The capture antibody mAb Mt175 is diluted to 2 μg/mL with PBS (1:250) and added to the cell plate at 15 μL per well. Keep the plate overnight at 4° C.
2.4.1 Discard the coated antibody and wash 4 times with PBST.
2.4.3 Discard the blocking buffer and wash 4 times with PBST.
2.4.4 Add 25 μL of 2.2.3 collected supernatant sample per well and incubate for 2 h at room temperature.
2.4.5 Discard the samples and wash 4 times with PBST.
2.4.6 Add mAb7P10-biotin (concentration 0.5 ug/mL) to blocking buffer, add 15 μL per well to the cell plate, and incubate for 1 hour at room temperature.
2.4.7 Discard the antibody and wash 4 times with PBST.
2.4.8 Streptavidin-HRP was diluted 1:1000 in blocking buffer, 15 μL per well was added to the cell plate, and incubated for 1 hour at room temperature.
2.4.9 Discard streptavidin-HRP and wash 4 times with PBST.
2.4.10 Add 25 μL of HRP substrate (Surmodics-TMBW-0100-01) per well and incubate the cell plate until a blue product appears.
2.4.11 Add 25 μL of stop solution (Surmodics-LSTP-0100-01) per well, and the blue product turns yellow.
2.4.12 Read the cell plate at 450 nm with a microplate reader.

Molecules are shown by their SMILES. Bounds are passed on as bounds.

Sequence of hERG potassium channel (Q12809 whole entry): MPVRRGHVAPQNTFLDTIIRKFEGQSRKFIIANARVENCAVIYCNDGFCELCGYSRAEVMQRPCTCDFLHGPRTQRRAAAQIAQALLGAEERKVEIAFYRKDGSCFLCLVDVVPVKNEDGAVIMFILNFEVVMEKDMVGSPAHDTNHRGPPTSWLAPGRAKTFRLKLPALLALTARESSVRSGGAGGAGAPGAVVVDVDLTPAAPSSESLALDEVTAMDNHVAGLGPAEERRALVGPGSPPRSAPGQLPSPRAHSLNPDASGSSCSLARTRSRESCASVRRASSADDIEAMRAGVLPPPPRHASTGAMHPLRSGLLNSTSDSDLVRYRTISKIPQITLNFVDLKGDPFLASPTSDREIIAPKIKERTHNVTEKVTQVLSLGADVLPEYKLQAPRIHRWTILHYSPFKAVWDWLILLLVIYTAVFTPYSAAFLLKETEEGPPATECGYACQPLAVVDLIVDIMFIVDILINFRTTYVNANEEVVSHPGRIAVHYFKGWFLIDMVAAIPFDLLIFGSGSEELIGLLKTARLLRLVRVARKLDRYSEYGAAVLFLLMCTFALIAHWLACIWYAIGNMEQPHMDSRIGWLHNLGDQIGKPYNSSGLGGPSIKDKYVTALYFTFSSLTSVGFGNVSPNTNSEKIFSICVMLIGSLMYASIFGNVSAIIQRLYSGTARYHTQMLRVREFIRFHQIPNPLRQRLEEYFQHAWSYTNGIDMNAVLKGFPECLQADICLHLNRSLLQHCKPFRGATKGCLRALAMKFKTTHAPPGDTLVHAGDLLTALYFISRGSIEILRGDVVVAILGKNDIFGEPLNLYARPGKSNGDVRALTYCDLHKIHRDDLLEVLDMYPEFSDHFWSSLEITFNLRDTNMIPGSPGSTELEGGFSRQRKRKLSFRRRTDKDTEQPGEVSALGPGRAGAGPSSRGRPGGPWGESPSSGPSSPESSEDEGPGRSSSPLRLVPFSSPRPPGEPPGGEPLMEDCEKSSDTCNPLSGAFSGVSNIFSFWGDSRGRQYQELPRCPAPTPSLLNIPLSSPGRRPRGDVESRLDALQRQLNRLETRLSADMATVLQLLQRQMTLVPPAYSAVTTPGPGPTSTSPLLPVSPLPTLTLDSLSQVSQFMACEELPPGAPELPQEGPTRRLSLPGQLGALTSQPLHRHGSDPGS

A word on the IC50: it is the concentration needed to halve the response being measured. Low values mean inhibition by little substance, high ones a need for much substance. `Cc1cc(N[C@@H]2CCCN(C)C2)nnc1-c1ccc(C(F)(F)F)cc1O` [Comparison 3] registered an IC50 at hERG potassium channel of less than 10000 nM. As for `Cc1cc(C)c(-c2cnc(N[C@@H]3CCCN(CCO)C3)nn2)c(O)c1` [Embodiment 2, (R)-2-(3-((1-(2-hydroxyethyl)piperidin-3-yl)amino)-1,2,4-triazin-6-yl)-3,5-dimethylphenol], the IC50 on NLRP3 was 40.2 nM; at hERG potassium channel, more than 30000 nM.

As for `Cc1cc(C)c(-c2cnc(N[C@@H]3CCCN(C4CC4)C3)nn2)c(O)c1` [Embodiment 6, (R)-2-(3-((1-cyclopropylpiperidin-3-yl)amino)-1,2,4-triazin-6-yl)-3,5-dimethylphenol], the IC50 was 7.4 nM against NLRP3 and more than 30000 nM against hERG potassium channel. In the case of `Cc1cc(Cl)cc(O)c1-c1cnc(N[C@@H]2CCCC[C@H]2O)nn1` [Embodiment 35, 5-Chloro-2-(3-(((1R,2R)-2-hydroxycyclohexyl)amino)-1,2,4-triazin-6-yl)-3-methylphenol], the IC50 is 12.4 nM on NLRP3 and more than 30000 nM at hERG potassium channel. As to `Cc1nc(N[C@H]2C[C@@](C)(O)C2)nnc1-c1ccc(C(F)(F)F)cc1O` [Embodiment 37, 2-(3-(((cis)-3-hydroxy-3-methylcyclobutyl)amino)-5-methyl-1,2,4-triazin-6-yl)-5-(trifluoromethyl)phenol], the IC50 on NLRP3 is 27.3 nM; against hERG potassium channel, more than 30000 nM.

In turn, `Cc1cc(C(F)(F)F)cc(O)c1-c1cnc(N[C@@H]2CCC[C@@H](O)C2)nn1` [Embodiment 39] displayed an IC50 against hERG potassium channel of more than 30000 nM. As to `Cc1cc(C(F)(F)F)cc(O)c1-c1cnc(N[C@H]2C[C@@](C)(O)C2)nn1` [Embodiment 40, 2-(3-(((cis)-3-hydroxy-3-methylcyclobutyl)amino)-1,2,4-triazin-6-yl)-3-methyl-5-(trifluoromethyl)phenol], the IC50 against NLRP3 was 12.4 nM; on hERG potassium channel, more than 30000 nM. In the case of `Cc1nc(N[C@@H]2CCCN(C(C)CO)C2)nnc1-c1ccc(C(F)(F)F)cc1O` (stereo partly drawn) [Embodiment 43, 2-(3-(((3R)-1-(1-hydroxypropyl-2-yl)piperidin-3-yl)amino)-5-methyl-1,2,4-triazin-6-yl)-5-(trifluoromethyl)phenol], the IC50 is 6.5 nM on NLRP3 and more than 30000 nM at hERG potassium channel. Take `Cc1cc(C(F)(F)F)cc(O)c1-c1cnc(N[C@@H]2CCCN(C(C)CO)C2)nn1` (stereo partly drawn) [Embodiment 47, 2-(3-(((3R)-1-(1-hydroxypropyl-2-yl)piperidin-3-yl)amino)-1,2,4-triazin-6-yl)-3-methyl-5-(trifluoromethyl)phenol]: the IC50 was 4.6 nM at NLRP3 and more than 30000 nM against hERG potassium channel. In the same order, the values of `Cc1cc(C(F)(F)F)cc(O)c1-c1cnc(N[C@@H]2CCCN(CCO)C2)nn1` [Embodiment 48, (R)-2-(3-((1-(2-hydroxyethyl)piperidin-3-yl)amino)-1,2,4-triazin-6-yl)-3-methyl-5-(trifluoromethyl)phenol] are 9.1 nM and more than 30000 nM. As to `Oc1cc(C(F)(F)F)ccc1-c1nnc(N[C@@H]2CCCC[C@H]2O)c2ccccc12` [Embodiment 64], the figures for the IC50 against NLRP3 and against hERG potassium channel were 4.7 nM and more than 30000 nM, respectively.

Molecule `CN1CCC[C@@H](Nc2nnc(-c3ccc(C(F)(F)F)cc3O)c3cocc23)C1` [Embodiment 109] had an IC50 at NLRP3 of 40.6 nM.

On to `CN1CCC[C@@H](Nc2nnc(-c3ccc(C(F)(F)F)cc3O)c3c2C(F)(F)CC3)C1` [Embodiment 112], for which half-maximal inhibition on NLRP3 (IC50) was put at 2 nM.

On to `CN1CCC[C@@H](Nc2nnc(-c3ccc(C(F)(F)F)cc3O)c3ccn(C)c23)C1` [Embodiment 113], for which the IC50 against NLRP3 was determined as 16.1 nM. In turn, `CN1CCC[C@@H](Nc2nnc(-c3ccc(C(F)(F)F)cc3O)c3c2ccn3C)C1` [Embodiment 114] registered an IC50 against NLRP3 of 31 nM. Still for that read-out and setting: the same measure for `Cc1cc(Cl)cc(O)c1-c1nnc(N[C@@H]2CCCN(C)C2)c2ccccc12` [Embodiment 116]: 10.6 nM; for `COc1ccc2c(-c3ccc(C(F)(F)F)cc3O)nnc(N[C@@H]3CCCN(C)C3)c2c1` [Embodiment 118]: 2.9 nM; for `CN1CCC[C@@H](Nc2nnc(-c3ccc(C(F)(F)F)cc3O)c3cccc(F)c23)C1` [Embodiment 119]: 5 nM. `CN1CCC[C@@H](Nc2nnc(-c3ccc(C(F)(F)F)cc3O)c3ccc(F)cc23)C1` [Embodiment 120] showed a half-inhibitory concentration (IC50) at NLRP3 of 4.1 nM. This IC50 and that of the molecule before are within 1.5-fold of each other. On the same count and under the same terms, to `CN1CCC[C@@H](Nc2nnc(-c3ccc(C(F)(F)F)cc3O)c3cc(F)ccc23)C1` [Embodiment 121] belongs 1.2 nM; to `CN1CCC[C@@H](Nc2nnc(-c3ccc(C(F)(F)F)cc3O)c3c(F)cccc23)C1` [Embodiment 122], 2.9 nM.

Take `CN1CCC[C@@H](Nc2nnc(-c3ccc(Cl)cc3O)c3cccnc23)C1` [Embodiment 123]: the IC50 against NLRP3 worked out at 5.47 nM. As for `CN1CCC[C@@H](Nc2nnc(-c3ccc(Cl)cc3O)c3ncccc23)C1` [Embodiment 124], inhibition on NLRP3 was half-maximal at 20.6 nM (IC50). This IC50 is about 3.8-fold higher than that of the molecule before. `Cc1cc(Cl)cc(O)c1-c1nnc(N[C@@H]2CCCN(C)C2)c2ncccc12` [Embodiment 125] registered an IC50 at NLRP3 of 9.9 nM. As for `CN1CCC[C@@H](Nc2nnc(-c3ccc(Cl)cc3O)c3ccncc23)C1` [Embodiment 128], the IC50 at NLRP3 amounted to 3 nM. The same measure, in the same setting: to `CN1CCC[C@@H](Nc2nnc(-c3ccc(Cl)cc3O)c3cnccc23)C1` [Embodiment 129] belongs 3.8 nM. Still for that read-out and setting: to `Cc1nc(N[C@@H]2CCCN(CC3(O)CC3)C2)nnc1-c1ccc(C(F)(F)F)cc1O` [Embodiment 134] belongs 14 nM; to `C[C@]1(O)C[C@@H](Nc2nnc(-c3ccc(C(F)(F)F)cc3O)c3cc(F)ccc23)C1` [Embodiment 138], 4.7 nM.

On NLRP3, `Oc1cc(C(F)(F)F)cc(F)c1-c1nnc(N[C@@H]2CCCC[C@H]2O)c2ncccc12` [Embodiment 140] gave an IC50 of 9.5 nM.

In turn, `Cc1nc(N[C@@H]2CCCN(C3CC3)C2)nnc1-c1ccc(C(F)(F)F)cc1O` [Embodiment 141] came in with a half-maximal inhibitory concentration (IC50) on NLRP3 of 1.5 nM. This IC50 lies about 6.3-fold lower than the previous one. For `Cc1nc(N[C@@H]2CCCN(C3CCC3)C2)nnc1-c1ccc(C(F)(F)F)cc1O` [Embodiment 142], at NLRP3, the IC50 came to 11.3 nM. `CCN1CCC[C@@H](Nc2nnc(-c3ccc(C(F)(F)F)cc3O)c(C)n2)C1` [Embodiment 143] came in with a concentration for half-maximal inhibition (IC50) at NLRP3 of 0.9 nM. In turn, `Cc1nc(N[C@@H]2CCCN(C(C)C)C2)nnc1-c1ccc(C(F)(F)F)cc1O` [Embodiment 144] gave an IC50 against NLRP3 of 1.8 nM. This IC50 is about 2-fold higher than that of the molecule before. The molecule `Cc1nc(N[C@@H]2CCCN(CC3CC3)C2)nnc1-c1ccc(C(F)(F)F)cc1O` [Embodiment 146] yielded an IC50 at NLRP3 of 7.4 nM. Compared with the last molecule, the IC50 is about 4.1-fold higher. `OCCN1CCC[C@@H](Nc2nnc(-c3ccc(Cl)cc3O)c3cc(F)ccc23)C1` [Embodiment 154] returned an IC50 against NLRP3 of 3.2 nM. Against the preceding molecule, the IC50 is about 2.3-fold lower.
